Source: article PMC9706563, “Development of Macrocyclic PRMT5–Adaptor Protein Interaction Inhibitors” (Journal of Medicinal Chemistry, 2022)
Numbered stars: 1 amine (or outer) side, 2 acyl side, 3 side chain; on linkers, the order of the positions; unused ones are H or OH. Bridge positions count the residues as written; N and C are the ends. Square brackets hold non-standard residues; d marks the D form. Peptide text beside a SMILES is read from it. * marks the point of attachment. FITC = O=C1OC2(c3ccc(O)cc3Oc3cc(O)ccc32)c2ccc(NC(=S)*)cc21; dNva(5-ylidene) = O=C([C@@H](CCC=[*:3])N[*:1])[*:2]; dAllylGly = C=CC[C@@H](N)C(=O)O

These molecules were tested against T1, PRMT5-MEP50 (Homo sapiens, UniProt O14744) (assay: Direct binding fluorescence polarization (FP) assay of FITC-labeled peptides). Settings: FITC-labeled peptide 1 nM, PRMT5-MEP50 titrated, read-out: KD.
T1 construct: The compounds were tested by means of FP with the full-length PRMT5-MEP50 complex; made in house
T1 sequence (O14744 whole entry): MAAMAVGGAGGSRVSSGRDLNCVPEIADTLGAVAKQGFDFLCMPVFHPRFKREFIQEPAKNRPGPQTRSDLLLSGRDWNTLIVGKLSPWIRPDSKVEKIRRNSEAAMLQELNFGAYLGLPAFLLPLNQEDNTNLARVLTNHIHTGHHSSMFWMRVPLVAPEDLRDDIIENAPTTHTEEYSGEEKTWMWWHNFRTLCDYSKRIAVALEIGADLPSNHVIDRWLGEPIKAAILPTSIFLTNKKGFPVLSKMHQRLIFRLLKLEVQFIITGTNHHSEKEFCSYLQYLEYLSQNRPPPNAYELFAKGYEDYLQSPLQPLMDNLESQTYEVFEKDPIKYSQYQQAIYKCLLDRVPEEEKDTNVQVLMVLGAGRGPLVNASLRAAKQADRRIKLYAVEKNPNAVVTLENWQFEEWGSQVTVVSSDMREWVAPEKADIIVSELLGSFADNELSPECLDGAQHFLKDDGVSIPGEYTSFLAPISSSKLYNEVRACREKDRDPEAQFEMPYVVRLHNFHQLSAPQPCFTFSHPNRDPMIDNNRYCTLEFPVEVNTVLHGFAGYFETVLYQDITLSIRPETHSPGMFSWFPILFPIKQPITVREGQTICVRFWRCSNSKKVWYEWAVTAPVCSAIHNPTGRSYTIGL
T1 sequence (Q9BQA1 whole entry partner): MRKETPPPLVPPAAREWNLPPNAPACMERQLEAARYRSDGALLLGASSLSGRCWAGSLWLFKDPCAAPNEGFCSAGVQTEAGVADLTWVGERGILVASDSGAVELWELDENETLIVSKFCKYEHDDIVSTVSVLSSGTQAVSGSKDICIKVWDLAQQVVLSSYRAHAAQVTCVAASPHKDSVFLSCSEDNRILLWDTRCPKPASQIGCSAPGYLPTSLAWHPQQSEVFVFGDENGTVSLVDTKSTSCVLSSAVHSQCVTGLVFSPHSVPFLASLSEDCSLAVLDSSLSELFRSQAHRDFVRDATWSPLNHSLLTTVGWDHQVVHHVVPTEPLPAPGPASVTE
Experimental: The assay was performed in a buffer of 50 mM 4-(2-hydroxyethyl)-1-piperazineethanesulfonic acid (HEPES), 250 mM NaCl, 1 mM tris(2-carboxyethyl)phosphine (TCEP), and 0.01% (v/v) Tween 20, pH 8.0, in black, 384-well plates with a total volume of 10 μL per well. […] The plates were incubated at room temperature for 1 to 2 h and analyzed on a plate reader using 485 nm excitation and 535 nm emission wavelength. The assay was performed in triplicate.
`CC(C)[C@H](NC(=O)[C@H](CCCNC(=N)N)NC(=O)[C@H](CO)NC(=O)COCCOCCNC(=S)Nc1ccc2c(c1)C(=O)OC21c2ccc(O)cc2Oc2cc(O)ccc21)C(=O)N[C@H](C(=O)N1CCC[C@H]1C(=O)NC1CC=CC[C@@H](C(=O)N[C@@H](CC(=O)O)C(=O)N[C@@H](C)C(=O)N[C@@H](CC(=O)O)C(N)=O)NC(=O)[C@H](Cc2ccccc2)NC(=O)[C@H](CCC(N)=O)NC1=O)C(C)C` (stereo in doubt) [Compound 13] gave a Kd of 0.719 ± 0.041 µM. Molecule `CC(=O)N[C@H](C(=O)N1CCC[C@H]1C(=O)NC1CCCCC[C@@H](C(=O)N[C@@H](CC(=O)O)C(=O)N[C@@H](C)C(=O)N[C@@H](CC(=O)O)C(=O)N[C@@H](CCCCNC(=S)Nc2ccc3c(c2)C(=O)OC32c3ccc(O)cc3Oc3cc(O)ccc32)C(N)=O)NC(=O)[C@H](Cc2ccccc2)NC(=O)[C@H](CCC(N)=O)NC1=O)C(C)C` (stereo in doubt) [Compound 21] has a Kd of 0.43 ± 0.096 µM. For `CC(=O)NC1CCCCC[C@@H](C(=O)N[C@@H](CC(=O)O)C(=O)N[C@@H](C)C(=O)N[C@@H](CC(C(=O)O)C(=O)O)C(=O)N[C@@H](CCCCNC(=S)Nc2ccc3c(c2)C(=O)OC32c3ccc(O)cc3Oc3cc(O)ccc32)C(N)=O)NC(=O)[C@H](Cc2ccc([N+](=O)[O-])cc2)NC(=O)[C@H](CCC(N)=O)NC1=O` (stereo in doubt) [Compound 51], the Kd was greater than 2 µM. Work on `CC(=O)N[C@H](C(=O)N1CCC[C@H]1C(=O)NC1CC=CCC[C@@H](C(=O)N[C@@H](CC(=O)O)C(=O)N[C@@H](C)C(=O)N[C@@H](CC(=O)O)C(=O)N[C@@H](CCCCNC(=S)Nc2ccc3c(c2)C(=O)OC32c3ccc(O)cc3Oc3cc(O)ccc32)C(N)=O)NC(=O)[C@H](Cc2ccccc2)NC(=O)[C@H](CCC(N)=O)NC1=O)C(C)C` (stereo partly shown) [Compound 18] yielded a Kd of 0.352 ± 0.049 µM.

Same assay, conditions: supplementary CSV, read-out: PRMT5-MEP50 Kd
`CC(C)[C@H](NC(=O)[C@H](CCCNC(=N)N)NC(=O)[C@H](CO)NC(=O)COCCOCCNC(=S)Nc1ccc2c(c1)C(=O)OC21c2ccc(O)cc2Oc2cc(O)ccc21)C(=O)N[C@H](C(=O)N1CCC[C@H]1C(=O)N[C@@H]1CC=CC[C@H](C(=O)N[C@@H](CC(=O)O)C(=O)N[C@@H](C)C(=O)N[C@@H](CC(=O)O)C(N)=O)NC(=O)[C@H](Cc2ccccc2)NC(=O)[C@H](CCC(N)=O)NC1=O)C(C)C` (single isomer, unassigned) [15 (isomer 1)] was tested, and the Kd was greater than 2 µM. Molecule `CC(=O)N[C@H](C(=O)N1CCC[C@H]1C(=O)N[C@@H]1CC=CCC[C@@H](C(=O)N[C@@H](CC(=O)O)C(=O)N[C@@H](C)C(=O)N[C@@H](CC(=O)O)C(=O)N[C@@H](CCCCNC(=S)Nc2ccc3c(c2)C(=O)OC32c3ccc(O)cc3Oc3cc(O)ccc32)C(N)=O)NC(=O)[C@H](Cc2ccccc2)NC(=O)[C@H](CCC(N)=O)NC1=O)C(C)C` (single isomer, unassigned) [18 (isomer 1)] has a Kd of 0.352 ± 0.049 µM. `CC(C)[C@H](NC(=O)[C@H](CCCNC(=N)N)NC(=O)[C@H](CO)NC(=O)COCCOCCNC(=S)Nc1ccc2c(c1)C(=O)OC21c2ccc(O)cc2Oc2cc(O)ccc21)C(=O)N[C@H](C(=O)N1CCC[C@H]1C(=O)NC1CNC(=O)C[C@@H](C(=O)N[C@@H](CC(=O)O)C(=O)N[C@@H](C)C(=O)N[C@@H](CC(=O)O)C(N)=O)NC(=O)[C@H](Cc2ccccc2)NC(=O)[C@H](CCC(N)=O)NC1=O)C(C)C` (stereo in doubt) [Compound 5] gave a Kd greater than 2 µM. `CC(C)[C@H](NC(=O)[C@H](CCCNC(=N)N)NC(=O)[C@H](CO)NC(=O)COCCOCCNC(=S)Nc1ccc2c(c1)C(=O)OC21c2ccc(O)cc2Oc2cc(O)ccc21)C(=O)N[C@H](C(=O)N1CCC[C@H]1C(=O)NC1CNC(=O)CC[C@@H](C(=O)N[C@@H](CC(=O)O)C(=O)N[C@@H](C)C(=O)N[C@@H](CC(=O)O)C(N)=O)NC(=O)[C@H](Cc2ccccc2)NC(=O)[C@H](CCC(N)=O)NC1=O)C(C)C` (stereo in doubt) [Compound 6] was tested, and the Kd was greater than 2 µM. `CC(C)[C@H](NC(=O)[C@H](CCCNC(=N)N)NC(=O)[C@H](CO)NC(=O)COCCOCCNC(=S)Nc1ccc2c(c1)C(=O)OC21c2ccc(O)cc2Oc2cc(O)ccc21)C(=O)N[C@H](C(=O)N1CCC[C@H]1C(=O)NC1CCNC(=O)C[C@@H](C(=O)N[C@@H](CC(=O)O)C(=O)N[C@@H](C)C(=O)N[C@@H](CC(=O)O)C(N)=O)NC(=O)[C@H](Cc2ccccc2)NC(=O)[C@H](CCC(N)=O)NC1=O)C(C)C` (stereo in doubt) [Compound 7] gave a Kd greater than 2 µM. `CC(C)[C@H](NC(=O)[C@H](CCCNC(=N)N)NC(=O)[C@H](CO)NC(=O)COCCOCCNC(=S)Nc1ccc2c(c1)C(=O)OC21c2ccc(O)cc2Oc2cc(O)ccc21)C(=O)N[C@H](C(=O)N1CCC[C@H]1C(=O)NC1CCNC(=O)CC[C@@H](C(=O)N[C@@H](CC(=O)O)C(=O)N[C@@H](C)C(=O)N[C@@H](CC(=O)O)C(N)=O)NC(=O)[C@H](Cc2ccccc2)NC(=O)[C@H](CCC(N)=O)NC1=O)C(C)C` (stereo in doubt) [Compound 8] showed a Kd greater than 2 µM. `CC(=O)N[C@H](C(=O)N1CCC[C@H]1C(=O)NC1CC=CC[C@@H](C(=O)N[C@@H](CC(=O)O)C(=O)N[C@@H](C)C(=O)N[C@@H](CC(=O)O)C(=O)N[C@@H](CCCCNC(=S)Nc2ccc3c(c2)C(=O)OC32c3ccc(O)cc3Oc3cc(O)ccc32)C(N)=O)NC(=O)[C@H](Cc2ccccc2)NC(=O)[C@H](CCC(N)=O)NC1=O)C(C)C` (stereo in doubt) [Compound 17] gave a Kd of 0.452 ± 0.001 µM. `CC(=O)N[C@H](C(=O)N1CCC[C@H]1C(=O)NC1CCC=CCC[C@@H](C(=O)N[C@@H](CC(=O)O)C(=O)N[C@@H](C)C(=O)N[C@@H](CC(=O)O)C(=O)N[C@@H](CCCCNC(=S)Nc2ccc3c(c2)C(=O)OC32c3ccc(O)cc3Oc3cc(O)ccc32)C(N)=O)NC(=O)[C@H](Cc2ccccc2)NC(=O)[C@H](CCC(N)=O)NC1=O)C(C)C` (stereo in doubt) [Compound 20] showed a Kd greater than 2 µM. With `CC(=O)N1CCC[C@H]1C(=O)N[C@H](C(=O)NC1CCCCC[C@@H](C(=O)N[C@@H](Cc2ccc([N+](=O)[O-])cc2)C(=O)N[C@@H](CC(C(=O)O)C(=O)O)C(=O)N[C@@H](CCC(N)=O)C(=O)N[C@@H](CCCCNC(=S)Nc2ccc3c(c2)C(=O)OC32c3ccc(O)cc3Oc3cc(O)ccc32)C(N)=O)NC(=O)[C@H](CC(=O)O)NC(=O)[C@H](C)NC1=O)C(C)C` (stereo in doubt) [Compound 52] the Kd was greater than 2 µM. In the case of `CC(C)[C@H](NC(=O)[C@H](CCCNC(=N)N)NC(=O)[C@H](CO)NC(=O)COCCOCCNC(=S)Nc1ccc2c(c1)C(=O)OC21c2ccc(O)cc2Oc2cc(O)ccc21)C(=O)N[C@H](C(=O)N1CCC[C@H]1C(=O)N[C@@H]1CNC(=O)C[C@H](C(=O)N[C@@H](CC(=O)O)C(=O)N[C@@H](C)C(=O)N[C@@H](CC(=O)O)C(N)=O)NC(=O)[C@H](Cc2ccccc2)NC(=O)[C@H](CCC(N)=O)NC1=O)C(C)C` [Compound 9], the Kd is reported as greater than 2 µM. With `CC(C)[C@H](NC(=O)[C@H](CCCNC(=N)N)NC(=O)[C@H](CO)NC(=O)COCCOCCNC(=S)Nc1ccc2c(c1)C(=O)OC21c2ccc(O)cc2Oc2cc(O)ccc21)C(=O)N[C@H](C(=O)N1CCC[C@H]1C(=O)N[C@@H]1CNC(=O)CC[C@H](C(=O)N[C@@H](CC(=O)O)C(=O)N[C@@H](C)C(=O)N[C@@H](CC(=O)O)C(N)=O)NC(=O)[C@H](Cc2ccccc2)NC(=O)[C@H](CCC(N)=O)NC1=O)C(C)C` [Compound 10] the Kd was greater than 2 µM. `CC(C)[C@H](NC(=O)[C@H](CCCNC(=N)N)NC(=O)[C@H](CO)NC(=O)COCCOCCNC(=S)Nc1ccc2c(c1)C(=O)OC21c2ccc(O)cc2Oc2cc(O)ccc21)C(=O)N[C@H](C(=O)N1CCC[C@H]1C(=O)N[C@@H]1CCNC(=O)C[C@H](C(=O)N[C@@H](CC(=O)O)C(=O)N[C@@H](C)C(=O)N[C@@H](CC(=O)O)C(N)=O)NC(=O)[C@H](Cc2ccccc2)NC(=O)[C@H](CCC(N)=O)NC1=O)C(C)C` [Compound 11] gave a Kd greater than 2 µM. `CC(C)[C@H](NC(=O)[C@H](CCCNC(=N)N)NC(=O)[C@H](CO)NC(=O)COCCOCCNC(=S)Nc1ccc2c(c1)C(=O)OC21c2ccc(O)cc2Oc2cc(O)ccc21)C(=O)N[C@H](C(=O)N1CCC[C@H]1C(=O)N[C@@H]1CCNC(=O)CC[C@H](C(=O)N[C@@H](CC(=O)O)C(=O)N[C@@H](C)C(=O)N[C@@H](CC(=O)O)C(N)=O)NC(=O)[C@H](Cc2ccccc2)NC(=O)[C@H](CCC(N)=O)NC1=O)C(C)C` [Compound 12] gave a Kd greater than 2 µM. Work on `CC(C)[C@H](NC(=O)[C@H](CCCNC(=N)N)NC(=O)[C@H](CO)NC(=O)COCCOCCNC(=S)Nc1ccc2c(c1)C(=O)OC21c2ccc(O)cc2Oc2cc(O)ccc21)C(=O)N[C@H](C(=O)N1CCC[C@H]1C(=O)N[C@@H]1CCCC[C@H](C(=O)N[C@@H](CC(=O)O)C(=O)N[C@@H](C)C(=O)N[C@@H](CC(=O)O)C(N)=O)NC(=O)[C@H](Cc2ccccc2)NC(=O)[C@H](CCC(N)=O)NC1=O)C(C)C` [Compound 16] yielded a Kd greater than 2 µM. With `CC(=O)N[C@H](C(=O)N1CCC[C@H]1C(=O)N[C@@H]1CC=CCC[C@H](C(=O)N[C@@H](CC(=O)O)C(=O)N[C@@H](C)C(=O)N[C@@H](CC(=O)O)C(=O)N[C@@H](CCCCNC(=S)Nc2ccc3c(c2)C(=O)OC32c3ccc(O)cc3Oc3cc(O)ccc32)C(N)=O)NC(=O)[C@H](Cc2ccccc2)NC(=O)[C@H](CCC(N)=O)NC1=O)C(C)C` [Compound 23] the Kd was greater than 2 µM. Molecule `CC(=O)N[C@H](C(=O)N1CCC[C@H]1C(=O)N[C@@H]1CCC=CC[C@H](C(=O)N[C@@H](CC(=O)O)C(=O)N[C@@H](C)C(=O)N[C@@H](CC(=O)O)C(=O)N[C@@H](CCCCNC(=S)Nc2ccc3c(c2)C(=O)OC32c3ccc(O)cc3Oc3cc(O)ccc32)C(N)=O)NC(=O)[C@H](Cc2ccccc2)NC(=O)[C@H](CCC(N)=O)NC1=O)C(C)C` [Compound 24] (Ac-VP[dNva(5-ylidene)]QF[dAllylGly]DADK(FITC)-NH2; staple 3-6) has a Kd greater than 2 µM. In the case of `CC(=O)N[C@H](C(=O)N1CCC[C@H]1C(=O)N[C@@H]1CCCCC[C@H](C(=O)N[C@@H](CC(=O)O)C(=O)N[C@@H](C)C(=O)N[C@@H](CC(=O)O)C(=O)N[C@@H](CCCCNC(=S)Nc2ccc3c(c2)C(=O)OC32c3ccc(O)cc3Oc3cc(O)ccc32)C(N)=O)NC(=O)[C@H](Cc2ccccc2)NC(=O)[C@H](CCC(N)=O)NC1=O)C(C)C` [Compound 26], the Kd is reported as greater than 2 µM. `CC(=O)N[C@H](C(=O)N1CCC[C@H]1C(=O)N[C@@H]1CCCCCC[C@H](C(=O)N[C@@H](CC(=O)O)C(=O)N[C@@H](C)C(=O)N[C@@H](CC(=O)O)C(=O)N[C@@H](CCCCNC(=S)Nc2ccc3c(c2)C(=O)OC32c3ccc(O)cc3Oc3cc(O)ccc32)C(N)=O)NC(=O)[C@H](Cc2ccccc2)NC(=O)[C@H](CCC(N)=O)NC1=O)C(C)C` [Compound 27] showed a Kd greater than 2 µM.
